{"source": "paper PMC9127185", "about": "“A Pyridazinone Compound for Effectively Treating Non-alcoholic Steatohepatitis by Targeting THRβ” (Frontiers in Chemistry, 2022)", "key": {"[1]": {"assay": "Stability of liver microsomes study (mouse)", "assay_type": "in vitro ADME", "details": "mouse liver microsomes 0.50 mg/ml, NADPH-generating system, 37°C, 0-90 min", "procedure": "Hypersil GOLD C18 column (4.6 × 150 mm, 5 μm, Thermo). A 0.025% ammonia aqueous solution in water (solvent A) and acetonitrile (solvent B) were used as mobile phases with gradient elution. The gradient was as follows: 0.01 min, 15% B; 5 min, 20% B; 12 min, 80% B; 16 min, 80% B; 16.01 min, 15% B; 19 min, 15% B; and 19.01 min, stopped. The timing interval was 19 min, and the flow rate was set at 1 ml/min.\nThe incubation system was carried out in 0.05 M Tris/KCl buffer (PH = 7.4) and included the following: pyrazinone compounds dissolved with dimethyl sulfoxide (DMSO), mouse liver microsomes and human liver microsomes at 0.50 mg/ml, 1.30 mM nicotinamide adenine dinucleotide sodium phosphate (NADP), 3.30 mM glucose-6-phosphate disodium salt (G-6-P), 0.40 units/mL glucose-6-phosphate dehydrogenase (G-6-PDH), and 3.30 mM magnesium chloride. […] After preincubation for 3 min in an 850-rpm blender (37°C), liver microsomes were added to initiate the incubation reaction (37°C). The incubation time was 0, 30, 60, and 90 min. After incubation, an equal volume of cold acetonitrile was added to stop the reaction, and an internal standard (0.05 mg/ml acetaminophen solution) was added. The samples were centrifuged at 10,000 rpm for 10 min to precipitate proteins ([Day et al., 2017]; [Manne et al., 2018]), and the 10 µL of the supernatant was taken for HPLC analysis."}, "[2]": {"assay": "Stability of liver microsomes study (human)", "assay_type": "in vitro ADME", "details": "human liver microsomes 0.50 mg/ml, NADPH-generating system, 37°C, 0-90 min"}, "[3]": {"assay": "Stability of YWS01125 in mouse plasma under storage conditions", "assay_type": "in vitro ADME", "details": "for Accuracy (RE) after storage / Concentration found after storage, Mean ± SD: mouse plasma", "procedure": "The validation was carried out by the US Food and Drug Administration bioanalytical method guidance ([Bioanalytical Method Validation, 2018]; [US Food and Drug Administration, 2018]; [Chen et al., 2019]), namely evaluating selectivity, linearity, accuracy and precision, recovery, matrix effect, and stability. Selectivity was assessed by contrasting the normal blank plasma samples' and analyst plasma samples' chromatograms from six different specimens. Linearity was appraised by different concentrations of the standard medicated plasma samples for 3 days continuously. The peak area was recorded ([Booth et al., 2015]), and weighted (1/x^2) least-squares analysis was used to acquire the standard curve equations. The accuracy and precision were assessed by three different (low, medium, and high) QC samples by diluting with acetonitrile; each concentration had six samples and was continuously accessed for 3 days, and the accuracy, intra-day precision, and inter-day precision were obtained. Recovery was evaluated by comparing the peak area of protein precipitated with acetonitrile first and finally using it to calculate the recovery of the analyst. The matrix effect was measured by comparing the analyst peak area with the saline solution samples and QC samples at the three concentrations. The stability was assessed by defining the three QC levels in several different storage conditions: at room temperature for 6 h, injector stability at 15 °C for a whole night, and after three freeze–thaw cycles.\nThis experiment investigated the stability of YWS01125 in the mouse plasma at different temperature conditions, namely the auto sampler (15°C) for 12 h of injector stability, room temperature for 6 h, and three freeze–thaw cycles. […] The measured results of YWS01125 are all within the acceptable limits during the entire process (Table 3)."}, "[4]": {"biological_target": "T1, THRβ (Homo sapiens, UniProt P10828)", "T1 sequence (P10828 1-461)": "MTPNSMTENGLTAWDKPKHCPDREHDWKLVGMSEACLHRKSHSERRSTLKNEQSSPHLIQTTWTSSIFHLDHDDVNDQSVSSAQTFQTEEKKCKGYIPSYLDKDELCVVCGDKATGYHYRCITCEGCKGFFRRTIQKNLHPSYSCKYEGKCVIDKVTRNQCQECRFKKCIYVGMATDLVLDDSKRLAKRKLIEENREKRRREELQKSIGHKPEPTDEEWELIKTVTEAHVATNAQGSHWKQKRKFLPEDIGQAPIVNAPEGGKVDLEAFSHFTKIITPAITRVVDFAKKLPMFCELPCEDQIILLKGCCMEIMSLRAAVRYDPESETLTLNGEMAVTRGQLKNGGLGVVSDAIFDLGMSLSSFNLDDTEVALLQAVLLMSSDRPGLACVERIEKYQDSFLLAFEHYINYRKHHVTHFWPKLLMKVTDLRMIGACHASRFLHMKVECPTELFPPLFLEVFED", "assay": "Selectivity and activity for THRβ", "details": "in words, no data shown"}, "[5]": {"assay": "Cytotoxicity", "assay_type": "cell-based", "details": "in words, no data shown"}, "[6]": {"test_system": "acute liver injury model", "assay": "Acute liver injury model", "assay_type": "in vivo, rat", "details": "in words, no data shown"}, "[7]": {"test_system": "acute hyperlipidemia mice", "assay": "Acute hyperlipidemia mice", "assay_type": "in vivo", "details": "in words, no data shown"}, "[8]": {"test_system": "NASH", "assay": "NASH pharmacodynamic study", "assay_type": "in vivo", "details": "in words, no data shown"}, "[9]": {"details": "injector stability (15°C, 12 h), added 10 ng/ml"}, "[10]": {"details": "injector stability (15°C, 12 h), added 50 ng/ml"}, "[11]": {"details": "injector stability (15°C, 12 h), added 300 ng/ml"}, "[12]": {"details": "room temperature for 6 h, added 10 ng/ml"}, "[13]": {"details": "room temperature for 6 h, added 300 ng/ml"}, "[14]": {"details": "three freeze–thaw cycles, added 10 ng/ml"}, "[15]": {"details": "three freeze–thaw cycles, added 50 ng/ml"}, "[16]": {"details": "three freeze–thaw cycles, added 300 ng/ml"}}, "note": "“Also recorded” adds a separate entry of the source."}
{"smiles": "N#Cc1cn(-c2cc(Cl)c(Oc3cc(C4CCC4)c(=O)[nH]n3)c(Cl)c2)c(=O)[nH]c1=O", "note": "[YWS01125, 1-(3,5-dichloro-4-((5-cyclobutyl-6-oxo-1,6-dihydropyridazin-3-yl)oxy)phenyl)-2,4-dioxo-1,2,3,4-tetrahydropyrimidine-5-carbonitrile]", "values": [{"measurement": "Metabolic stability / metabolite formation in liver microsomes", "setting": "[1]", "value": "no metabolites; also recorded: stable"}, {"measurement": "Metabolic stability / metabolite formation in liver microsomes", "setting": "[2]", "value": "no metabolites; also recorded: stable"}, {"measurement": "Stability in mouse plasma (in words)", "setting": "[3]; auto sampler 15°C 12 h, room temperature 6 h, three freeze–thaw cycles", "value": "maintains stability"}, {"measurement": "Accuracy (RE) after storage", "setting": "[3]; [9]", "value": 5.00, "unit": "%"}, {"measurement": "Concentration found after storage, Mean ± SD", "setting": "[3]; [9]", "value": "10.67 ± 0.52", "unit": "ng/mL"}, {"measurement": "Accuracy (RE) after storage", "setting": "[3]; [10]", "value": "−4.68", "unit": "%"}, {"measurement": "Concentration found after storage, Mean ± SD", "setting": "[3]; [10]", "value": "49.91 ± 2.15", "unit": "ng/mL"}, {"measurement": "Accuracy (RE) after storage", "setting": "[3]; [11]", "value": "−1.60", "unit": "%"}, {"measurement": "Concentration found after storage, Mean ± SD", "setting": "[3]; [11]", "value": "295.17 ± 29.36", "unit": "ng/mL"}, {"measurement": "Accuracy (RE) after storage", "setting": "[3]; [12]", "value": 1.20, "unit": "%"}, {"measurement": "Concentration found after storage, Mean ± SD", "setting": "[3]; [12]", "value": "10.29 ± 0.82", "unit": "ng/mL"}, {"measurement": "Concentration found after storage, Mean ± SD", "setting": "[3]; room temperature for 6 h, added 50 ng/ml", "value": "52.62 ± 1.73", "unit": "ng/mL"}, {"measurement": "Accuracy (RE) after storage", "setting": "[3]; [13]", "value": 3.88, "unit": "%"}, {"measurement": "Concentration found after storage, Mean ± SD", "setting": "[3]; [13]", "value": "299.33 ± 10.07", "unit": "ng/mL"}, {"measurement": "Accuracy (RE) after storage", "setting": "[3]; [14]", "value": "−1.80", "unit": "%"}, {"measurement": "Concentration found after storage, Mean ± SD", "setting": "[3]; [14]", "value": "9.45 ± 0.57", "unit": "ng/mL"}, {"measurement": "Accuracy (RE) after storage", "setting": "[3]; [15]", "value": "−2.20", "unit": "%"}, {"measurement": "Concentration found after storage, Mean ± SD", "setting": "[3]; [15]", "value": "47.80 ± 3.96", "unit": "ng/mL"}, {"measurement": "Accuracy (RE) after storage", "setting": "[3]; [16]", "value": "−2.66", "unit": "%"}, {"measurement": "Concentration found after storage, Mean ± SD", "setting": "[3]; [16]", "value": "289.17 ± 12.77", "unit": "ng/mL"}, {"measurement": "Selectivity and activity for THRβ", "setting": "[4]", "value": "excellent activity; also recorded: best selectivity and activity"}, {"measurement": "Cytotoxicity", "setting": "[5]", "value": "low cytotoxicity"}, {"measurement": "Effect in acute liver injury model", "setting": "[6]", "value": "hepatoprotective effect"}, {"measurement": "Effect on acute hyperlipidemia mice", "setting": "[7]", "value": "lipid-lowering function"}, {"measurement": "Effect on NASH", "setting": "[8]", "value": "alleviation of NASH"}]}
